Assay results reported in patent publication EP3002287B1, “Thiochromeno[2,3-c]quinolin-12-one derivatives and their use as topoisomerase inhibitors” (National Defense Medical Center, priority 2014, dated 2016).
Where two headings read alike, the source gives them in different places.

How the values were obtained:
DU-145 = assay: MTT assay for cell cytotoxicity; format: cell-based, human; details: 72 h, at least three independent experiments, read-out: MTT assay (IC50 ± SD) DU-145
Procedure: (§1) All of synthesis compounds were evaluated cell cytotoxicity by using MTT colorimetric assay on PC-3 and DU-145 cell lines. DU-145 and PC-3 are human hormone-refractory (androgen-independent) prostatic cancer cell lines from American Type Culture Collection (HTB-81™, ATCC, Rockville, MD)^125 and Bioresource Collection and Research Center (60122, BCRC, Taiwan)^126, respectively. Two of the "classical" cell lines were cultivated in RPMI-1640 medium supplemented with 5% fetal bovine serum (v/v), 100 U/mL penicillin, and […] streptomycin. Approximately 2 x 10^3 cells were seeded into each well of a 96-well plate and incubated in 5% CO2 at 37 °C for 24 h. To evaluate the in vitro cytotoxicity, all the synthetic compounds were dissolved in DMSO, prepared immediately before the experiments and diluted into the complete medium before being added to each well of a 96-well plate. Each compound was then added to the culture medium for designated various concentrations (0.15, 0.5, 1.5, 5, 15 µM). After 72 h, an amount of 100 µL of MTT (1 mg/mL) was added to each well, and the samples were incubated at 37 °C for 4 h. After removing the MTT solution, 100 µL of DMSO was added to each well and incubated at 37 °C for another 20 mins. The absorbency at 560 nm was measured by using an ELISA reader.
(§2) Results are expressed as mean values of at least three independent experiments. The IC50 values of testing compounds were described in Table 1. Table1. Effects of 10-Chloro-12H-thiochromeno[2,3-c]quinolin -12-one derivatives on cytotoxicity by MTT assay.

PC-3 = assay: MTT assay for cell cytotoxicity; format: cell-based, human; details: 72 h, at least three independent experiments, read-out: MTT assay (IC50 ± SD) PC-3
Procedure: as §1, §2

| Compound | IC50 (DU-145; Homo sapiens) [µM] | IC50 (PC-3; Homo sapiens) [µM] | IC50 (DU-145) [µM] | IC50 (PC-3) [µM] |
| --- | --- | --- | --- | --- |
| O=c1c2cc(Cl)ccc2sc2c(NC3CCCCC3)nc3ccccc3c12 [Compound N21, 10-Chloro-6-(cyclohexylamino)-12H-thiochromeno[2,3-c]quino lin-12-one] | 8.06 ± 2.08 | 7.51 ± 0.22 |  |  |
| O=c1c2cc(Cl)ccc2sc2c(NC3Cc4ccccc4C3)nc3ccccc3c12 [Compound N20, 10-Chloro-6-((2,3-dihydro-1H-inden-2-yl)amino)-12H-thiochro meno[2,3-c]quinolin-12-one] | 4.86 ± 0.99 | 6.2 ± 2.52 |  |  |
| COc1cccc2c1C(=O)c1c(O)c3c(c(O)c1C2=O)C[C@@](O)(C(=O)CO)C[C@@H]3O[C@H]1C[C@H](N)[C@H](O)[C@H](C)O1 [Doxorubicin, reference compound] | 0.12 ± 0.03 |  |  |  |
| CCCCNc1nc2ccccc2c2c(=O)c3cc(Cl)ccc3sc12 [Compound N4, 6-(Butylamino)-10-chloro-12H-thiochromeno[2,3-c]quinolin-1 2-one] | 10.3 ± 2.46 | 10.1 ± 1.32 |  |  |
| O=c1c2cc(Cl)ccc2sc2c(NCCCCCO)nc3ccccc3c12 [Compound N11, 10-Chloro-6-(5-pentanolamino)-12H-thiochromeno[2,3-c]quin olin-12-one] |  |  | 4.95 ± 0.58 | 8.38 ± 3.39 |
| O=c1c2cc(Cl)ccc2sc2c(N3CCCCC3)nc3ccccc3c12 [Compound 15, 10-Chloro-6-(piperidin-1-yl)-12H-thiochromeno[2,3-c]quinolin-12-one] | 13.4 ± 2.87 | > 15 |  |  |
| O=c1c2cc(Cl)ccc2sc2c(NCCCO)nc3ccccc3c12 [Compound N10, 10-Chloro-6-(3-propanolamino)-12H-thiochromeno[2,3-c]quin olin-12-one] |  |  | 5.94 ± 2.03 | 6.31 ± 4.11 |
| CNc1nc2ccccc2c2c(=O)c3cc(Cl)ccc3sc12 [Compound N1, 10-Chloro-6-methylamino-12H-thiochromeno[2,3-c]quinolin-12-one] | 11.7 ± 5.15 | 14.5 ± 2.7 |  |  |
| CC(C)CNc1nc2ccccc2c2c(=O)c3cc(Cl)ccc3sc12 [Compound N5, 10-Chloro-6-isobutylamino-12H-thiochromeno[2,3-c]quinolin-12-one] | > 15 | > 15 |  |  |
| COc1ccccc1CNc1nc2ccccc2c2c(=O)c3cc(Cl)ccc3sc12 [Compound N28, 10-Chloro-6-((2-methoxybenzyl)amino)-12H-thiochromeno[2,3-c]quinolin-12-one] | 9.61 ± 4.88 | 6.01 ± 3.31 |  |  |
| O=c1c2cc(Cl)ccc2sc2c(N3CCC(CCCC4CCNCC4)CC3)nc3ccccc3c12 [Compound 19, 10-Chloro-6-(4-(3-(piperidin-4-yl)propyl)piperidin-1yl)-12H-thi ochromeno[2,3-c]quinolin-12-one] | 9.02 ± 1.2 | 6.36 ± 0.17 |  |  |
| CCNc1nc2ccccc2c2c(=O)c3cc(Cl)ccc3sc12 [Compound N2, 10-Chloro-6-ethylamino-12H-thiochromeno[2,3-c]quinolin-12-one] | 6.7 ± 1.62 | 5.18 ± 2.2 |  |  |
| O=c1c2cc(Cl)ccc2sc2c(N3CCC(Cc4ccccc4)CC3)nc3ccccc3c12 [Compound 17, 6-(4-Benzylpiperidin-1-yl)-10-chloro-12H-thiochromeno[2,3-c]q uinolin-12-one] | > 15 | > 15 |  |  |
| O=c1c2cc(Cl)ccc2sc2c(N3CCC(N4CCCCC4)CC3)nc3ccccc3c12 [Compound 18, 6-([1,4'-Bipiperidin]-1'-yl)-10-chloro-12H-thiochromeno[2,3-c]q uinolin-12-one] | 10.2 ± 2.03 | 14.2 ± 1.41 |  |  |
| CC[C@@]1(O)C(=O)OCc2c1cc1n(c2=O)Cc2cc3ccccc3nc2-1 [Camptothecin, reference compound] | 0.1 ± 0.01 | 0.1 ± 0.01 |  |  |
| COc1ccc(CNc2nc3ccccc3c3c(=O)c4cc(Cl)ccc4sc23)cc1OC [Compound N29, 10-Chloro-6-((3,4-dimethoxybenzyl)amino)-12H-thiochromeno [2,3-c]quinolin-12-one] | 4.86 ± 0.99 | 6.2 ± 2.52 |  |  |
| CCC(CC)Nc1nc2ccccc2c2c(=O)c3cc(Cl)ccc3sc12 [Compound N6, 10-Chloro-6-(pentan-3-ylamino)-12H-thiochromeno[2,3-c]quin olin-12-one] | > 15 | > 15 |  |  |
| O=c1c2cc(Cl)ccc2sc2c(NCc3cccs3)nc3ccccc3c12 [Compound N23, 10-Chloro-6-((thiophen-2ylmethyl)amino)-12H-thiochromeno[2,3-c]quinolin-12-one] | 14.7 ± 3.84 | > 15 |  |  |
| O=c1c2cc(Cl)ccc2sc2c(NN3CCCCC3)nc3ccccc3c12 [Compound N34, 10-Chloro-6-(piperidin-1-ylamino)-12H-thiochromeno[2,3-c]qu inolin-12-one] | 9.06 ± 1.95 | 8.22 ± 1.02 |  |  |
| O=C1CCCCN1c1nc2ccccc2c2c(=O)c3cc(Cl)ccc3sc12 [Compound 21, 10-chloro-6-(2-oxopiperidin-1-yl)-12H-thiochromeno[2,3-c]quin olin-12-one] | 11.1 ± 4.18 | 9.55 ± 2.42 |  |  |
| CC(C)CC(C)Nc1nc2ccccc2c2c(=O)c3cc(Cl)ccc3sc12 (centres unmarked) [Compound N13, 10-Chloro-6-((4-methylpentan-2yl)amino)-12H-thiochromeno[2,3-c]quinolin-12-one] | 14.2 ± 1.18 | 10.4 ± 2.3 |  |  |
| O=c1c2cc(Cl)ccc2sc2c(N3CCSCC3)nc3ccccc3c12 [Compound 14, 10-Chloro-6-thiomorpholino-12H thiochromeno[2,3-c]quinolin-12-one] | > 15 | > 15 |  |  |
| O=c1c2cc(Cl)ccc2sc2c(NCCN3CCOCC3)nc3ccccc3c12 [Compound N16, 10-Chloro-6-((2-morpholinoethyl)amino)-12H-thiochromeno[2,3-c]quinolin-12-one] | > 15 | > 15 |  |  |
| O=c1c2cc(Cl)ccc2sc2c(NCc3ccc4c(c3)OCO4)nc3ccccc3c12 [Compound N27, 6-((Benzo[d][1,3]dioxol-5-ylmethyl)amino)-10-chloro-12H-thio chromeno[2,3-c]quinolin-12-one] | 11.8 ± 5.83 | > 15 |  |  |
| COc1cc([C@@H]2c3cc4c(cc3[C@@H](O[C@@H]3O[C@@H]5CO[C@@H](C)O[C@H]5[C@H](O)[C@H]3O)[C@H]3COC(=O)[C@H]23)OCO4)cc(OC)c1O [Etoposide (VP-16), Etoposide, reference compound] | 0.4 ± 0.01 | 4.33 ± 0.86 |  |  |
| O=c1c2cc(Cl)ccc2sc2c(NCCO)nc3ccccc3c12 [Compound N9, 10-Chloro-6-(2-ethanolamino)-12H-thiochromeno[2,3-c]quinol in-12-one] |  |  | 11.6 ± 7.23 | 7.48 ± 3.35 |
| CCCNc1nc2ccccc2c2c(=O)c3cc(Cl)ccc3sc12 [Compound N3, 10-Chloro-6 propylamino-12H-thiochromeno[2,3-c]quinolin-1 2-one] | 7.64 ± 2.74 | 7.41 ± 3.43 |  |  |
| O=C1c2c(O)ccc(O)c2C(=O)c2c(NCCNCCO)ccc(NCCNCCO)c21 [Mitoxantrone, reference compound] | 0.1 ± 0.01 | 0.39 ± 0.02 |  |  |
| O=c1c2cc(Cl)ccc2sc2c(NC3CCN(Cc4ccccc4)CC3)nc3ccccc3c12 [Compound N22, 6-((1-Benzylpiperidin-4-yl)amino)-10-chloro-12H-thiochromen o[2,3-c]quinolin-12-one] | 8.39 ± 1.84 | 6.47 ± 0.3 |  |  |
| O=c1c2cc(Cl)ccc2sc2c(NCCc3ccccc3)nc3ccccc3c12 [Compound N30, 10-Chloro-6-(phenethylamino)-12H-thiochromeno[2,3-c]quinol in-12-one] | > 15 | > 15 |  |  |
